Experimental data taken from ChEMBL document CHEMBL5728724, “6-aryl-7-substituted-3-(1H-pyrazol-5-yl)-7H-[1,2,4]triazolo[3,4-b][1,3,4]thiadiazines as inhibitors of the STAT3 pathway with anti-proliferative activity” (2021).

Biological target: T1, Signal transducer and activator of transcription 1-alpha/beta (Homo sapiens, UniProt P42224)
T1 sequence (P42224 whole entry): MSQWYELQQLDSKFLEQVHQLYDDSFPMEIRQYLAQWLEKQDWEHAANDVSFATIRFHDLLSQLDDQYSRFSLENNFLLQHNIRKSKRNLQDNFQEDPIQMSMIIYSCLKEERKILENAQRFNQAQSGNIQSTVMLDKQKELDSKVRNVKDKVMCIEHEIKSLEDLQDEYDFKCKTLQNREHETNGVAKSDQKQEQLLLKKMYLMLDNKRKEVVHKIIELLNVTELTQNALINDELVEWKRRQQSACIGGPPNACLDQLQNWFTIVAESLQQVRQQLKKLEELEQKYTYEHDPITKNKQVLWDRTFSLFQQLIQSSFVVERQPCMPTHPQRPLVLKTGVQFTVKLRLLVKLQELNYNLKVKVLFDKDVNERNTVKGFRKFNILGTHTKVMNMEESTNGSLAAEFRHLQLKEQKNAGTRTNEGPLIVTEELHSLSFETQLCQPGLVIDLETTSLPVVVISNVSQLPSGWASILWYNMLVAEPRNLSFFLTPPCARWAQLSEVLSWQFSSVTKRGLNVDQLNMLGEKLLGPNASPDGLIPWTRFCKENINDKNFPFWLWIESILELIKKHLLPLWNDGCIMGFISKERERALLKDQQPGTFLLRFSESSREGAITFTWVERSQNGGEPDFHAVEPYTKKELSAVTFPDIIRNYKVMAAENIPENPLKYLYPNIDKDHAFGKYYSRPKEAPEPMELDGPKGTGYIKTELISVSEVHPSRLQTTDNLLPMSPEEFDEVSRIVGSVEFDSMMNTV
Assay: Bioassay: Compound samples (in 3-5 mg quantities) were evaluated in a variety of assays. All compound submissions were fully characterized (1H, 13C, IR, FIRMS), satisfied purity criteria (≥95% LC/MC, ELS).

Row | Structure (SMILES) | IC50 [µM]
1 | c1ccc(-c2cc(-c3nnc4n3N=C(c3ccncc3)CS4)[nH]n2)cc1 | > 50
2 | C1=Nn2c(nnc2-c2cc(-c3ccccc3)n[nH]2)SC1 | > 50
3 | COc1ccc(C2=Nn3c(nnc3-c3[nH]nc4c3CCC4)SC2C)cc1 (centres undefined) | > 50
4 | c1ccc(-c2cc(-c3nnc4n3N=C(C3CCCCC3)CS4)[nH]n2)cc1 | > 50
5 | Clc1ccc(C2=Nn3c(nnc3-c3cc(-c4ccccc4)n[nH]3)SC2)cc1Cl | > 50
6 | Clc1ccc(C2=Nn3c(nnc3-c3[nH]nc4c3CCC4)SC2)s1 | > 50
7 | C1=Nn2c(nnc2-c2[nH]nc3c2CCC3)SC1 | > 50
8 | C1CCC(C2=Nn3c(nnc3-c3[nH]nc4c3CCC4)SC2)CC1 | > 50
9 | c1cc(C2=Nn3c(nnc3-c3[nH]nc4c3CCC4)SC2)ccn1 | > 50
10 | Clc1ccc(C2=Nn3c(nnc3-c3cc(-c4ccccc4)n[nH]3)SC2)s1 | > 50

More lines, now with the values ahead:

Row | IC50 [µM] | Structure (SMILES)
11 | > 50 | Clc1ccc(C2=Nn3c(nnc3-c3[nH]nc4c3CCC4)SC2)cc1
12 | > 50 | CC1=Nn2c(nnc2-c2cc(-c3ccccc3)[nH]n2)SC1
13 | > 50 | c1ccc(C2=Nn3c(nnc3-c3cc(-c4ccccc4)[nH]n3)SC2)cc1
14 | > 50 | CC1=Nn2c(nnc2-c2[nH]nc3c2CCC3)SC1
15 | > 50 | c1ccc(C2=Nn3c(nnc3-c3[nH]nc4c3CCC4)SC2)cc1
16 | > 50 | COc1ccc(C2=Nn3c(nnc3-c3[nH]nc4c3CCC4)SC2C(C)C)cc1 (centres undefined)
17 | > 50 | CC(C)C1Sc2nnc(-c3[nH]nc4c3CCC4)n2N=C1c1ccc(Cl)c(Cl)c1 (centres undefined)
18 | > 30 | CC1Sc2nnc(-c3cc(-c4ccc(F)cc4)n[nH]3)n2N=C1c1ccccc1 (centres undefined)
19 | > 30 | COc1ccc(C2=Nn3c(nnc3-c3cc(-c4ccc(F)cc4)n[nH]3)SC2C)cc1 (centres undefined)
